Data published in article PMC11461180, “Interaction with IP6K1 supports pyrophosphorylation of substrate proteins by the inositol pyrophosphate 5-InsP7” (Bioscience Reports, 2024).

Columns and labels:
[1] = molecular target: T1, Casein Kinase II (CK2 holoenzyme) (Homo sapiens, UniProt P68400); test: [γ-32P]ATP phosphorylation of immunoprecipitated myc-AP3B1, autoradiography; assay type: biochemical; conditions: 15 µM TBCA preincubated 30 min on ice; 500 µM Mg-ATP; enzyme form (holoenzyme or GST-CK2α) not told for the TBCA lanes
T1 construct: gene CSNK2A1; commercial recombinant holoenzyme, heterotetramer; with Casein kinase II subunit beta
T1 sequence (P68400 whole entry): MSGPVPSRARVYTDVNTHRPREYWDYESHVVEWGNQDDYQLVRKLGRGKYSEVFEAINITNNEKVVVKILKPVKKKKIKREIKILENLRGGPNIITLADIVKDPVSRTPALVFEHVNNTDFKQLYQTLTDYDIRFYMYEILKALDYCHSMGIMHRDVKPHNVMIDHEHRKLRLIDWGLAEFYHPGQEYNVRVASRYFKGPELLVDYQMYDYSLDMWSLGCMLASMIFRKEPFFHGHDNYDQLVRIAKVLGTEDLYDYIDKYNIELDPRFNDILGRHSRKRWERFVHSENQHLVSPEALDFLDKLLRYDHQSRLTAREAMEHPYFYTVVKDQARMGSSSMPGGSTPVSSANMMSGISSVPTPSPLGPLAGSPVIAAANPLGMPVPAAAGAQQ
T1 sequence (P67870 2-215 partner): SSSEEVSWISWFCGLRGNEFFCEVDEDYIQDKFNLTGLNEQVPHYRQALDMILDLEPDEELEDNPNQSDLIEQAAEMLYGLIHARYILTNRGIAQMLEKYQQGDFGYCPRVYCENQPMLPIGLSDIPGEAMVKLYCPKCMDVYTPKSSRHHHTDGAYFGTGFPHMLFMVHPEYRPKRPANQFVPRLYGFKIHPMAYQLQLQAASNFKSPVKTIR

AP3B1 (myc-tagged) = molecular target: T2, AP3B1 (myc-tagged) (Homo sapiens, UniProt O00203); test: pyrophosphorylation of immunoprecipitated protein, phosphorimager; assay type: biochemical; conditions: labelled compound; β-phosphate donor, covalent transfer to pSer of the protein, enzyme-independent; 6 mM MgCl2, pH 7.4, 37 °C, 15 min
T2 construct: full-length, N-terminal myc tag, expressed in HEK293T cells, immunoprecipitated on protein G-sepharose beads
T2 sequence (O00203 1-1094): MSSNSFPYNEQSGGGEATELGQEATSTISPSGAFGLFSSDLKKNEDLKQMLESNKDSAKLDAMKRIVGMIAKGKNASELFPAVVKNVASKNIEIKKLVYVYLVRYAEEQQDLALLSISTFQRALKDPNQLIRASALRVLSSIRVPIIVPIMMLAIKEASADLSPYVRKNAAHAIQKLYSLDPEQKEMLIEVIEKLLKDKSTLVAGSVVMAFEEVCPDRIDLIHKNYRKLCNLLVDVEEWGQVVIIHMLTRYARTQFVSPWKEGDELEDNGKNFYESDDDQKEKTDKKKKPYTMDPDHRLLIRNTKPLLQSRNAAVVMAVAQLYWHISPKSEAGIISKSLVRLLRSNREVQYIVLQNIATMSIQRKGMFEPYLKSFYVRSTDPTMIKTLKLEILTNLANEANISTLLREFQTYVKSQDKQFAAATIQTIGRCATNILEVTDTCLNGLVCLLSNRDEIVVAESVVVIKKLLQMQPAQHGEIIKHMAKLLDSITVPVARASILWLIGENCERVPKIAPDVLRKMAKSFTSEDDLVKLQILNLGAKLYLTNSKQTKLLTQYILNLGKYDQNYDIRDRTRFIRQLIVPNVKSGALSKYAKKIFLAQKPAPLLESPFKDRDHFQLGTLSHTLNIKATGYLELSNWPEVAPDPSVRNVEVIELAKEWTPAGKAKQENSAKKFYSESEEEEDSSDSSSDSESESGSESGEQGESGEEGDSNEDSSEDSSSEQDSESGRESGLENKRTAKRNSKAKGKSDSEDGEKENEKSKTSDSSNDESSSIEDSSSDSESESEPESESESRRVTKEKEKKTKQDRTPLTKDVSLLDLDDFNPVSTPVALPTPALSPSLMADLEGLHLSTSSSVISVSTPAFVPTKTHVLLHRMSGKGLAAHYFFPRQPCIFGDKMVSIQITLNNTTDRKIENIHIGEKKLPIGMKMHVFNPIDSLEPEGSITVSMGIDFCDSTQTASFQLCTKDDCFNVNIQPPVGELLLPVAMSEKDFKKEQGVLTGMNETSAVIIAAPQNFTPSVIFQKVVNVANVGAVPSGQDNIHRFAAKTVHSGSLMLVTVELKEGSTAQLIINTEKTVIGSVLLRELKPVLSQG

SMILES | phosphorylation lowered at 15 μM [1] | pyrophosphorylation of immunoprecipitated protein, phosphorimager (AP3B1 (myc-tagged))
O=C(O)/C=C/c1cc(Br)c(Br)c(Br)c1Br [TBCA] | which was lowered when the CK2 inhibitor TBCA was added to the reaction | –
O=P(O)(O)O[C@H]1[C@@H](OP(=O)(O)O)[C@H](OP(=O)(O)O)[C@@H](OP(=O)(O)OP(=O)(O)O)[C@H](OP(=O)(O)O)[C@H]1OP(=O)(O)O [5-InsP7] | – | AP3B1 over-expressed under these two conditions was immunoprecipitated and incubated with radiolabeled 5-InsP7
